The target of test [1] is T1, AHR (Homo sapiens, UniProt P35869).
T1 construct: U87 MG glioblastoma cells (ATCC #HTB-14) endogenously expressing AHR; endogenous in cells; host or cells: U87 MG glioblastoma cells (ATCC #HTB-14)
T1 sequence (P35869 11-848): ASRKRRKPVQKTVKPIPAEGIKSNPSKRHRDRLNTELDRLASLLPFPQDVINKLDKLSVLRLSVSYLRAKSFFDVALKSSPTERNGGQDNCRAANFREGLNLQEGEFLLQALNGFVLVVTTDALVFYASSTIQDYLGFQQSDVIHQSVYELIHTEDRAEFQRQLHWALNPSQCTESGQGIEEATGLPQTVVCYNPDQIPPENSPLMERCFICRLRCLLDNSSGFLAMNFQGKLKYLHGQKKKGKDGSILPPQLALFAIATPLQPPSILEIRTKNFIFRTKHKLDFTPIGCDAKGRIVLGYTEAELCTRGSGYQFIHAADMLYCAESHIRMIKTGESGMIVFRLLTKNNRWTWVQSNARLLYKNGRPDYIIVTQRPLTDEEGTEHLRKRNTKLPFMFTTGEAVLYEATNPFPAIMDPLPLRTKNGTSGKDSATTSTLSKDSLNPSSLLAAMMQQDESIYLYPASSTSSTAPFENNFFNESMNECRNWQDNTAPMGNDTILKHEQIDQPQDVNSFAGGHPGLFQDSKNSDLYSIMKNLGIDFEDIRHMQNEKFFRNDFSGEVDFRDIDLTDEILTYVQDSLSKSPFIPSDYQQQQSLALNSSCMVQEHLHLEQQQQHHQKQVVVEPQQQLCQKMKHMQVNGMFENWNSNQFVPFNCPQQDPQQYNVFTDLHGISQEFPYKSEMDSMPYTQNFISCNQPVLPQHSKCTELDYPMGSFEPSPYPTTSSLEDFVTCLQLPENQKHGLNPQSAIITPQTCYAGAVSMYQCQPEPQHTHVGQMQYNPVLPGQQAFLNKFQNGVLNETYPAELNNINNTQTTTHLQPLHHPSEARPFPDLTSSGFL
Put plainly: In vitro assay 1: antagonism in human cell line (AHR transactivation, firefly luciferase reporter, kynurenic acid prestimulated). The class given is cell-based. To be noted: AHR Antagonism Human IC50 [M]. The method, boiled down: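 Antagonism measured as loss of kynurenic acid-driven firefly luciferase from DRE reporter in stably transfected U87 MG cells; constitutive Renilla signal monitors cytotoxicity. Positive/negative control normalization, staurosporine 5 μM with 150 μM kynurenic acid as inhibition control; replicates given as mean or median.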

Test [2] deals with T2, AHR (Mus musculus, UniProt P30561).
T2 sequence (P30561 1-848 P471L/N533S/M589L): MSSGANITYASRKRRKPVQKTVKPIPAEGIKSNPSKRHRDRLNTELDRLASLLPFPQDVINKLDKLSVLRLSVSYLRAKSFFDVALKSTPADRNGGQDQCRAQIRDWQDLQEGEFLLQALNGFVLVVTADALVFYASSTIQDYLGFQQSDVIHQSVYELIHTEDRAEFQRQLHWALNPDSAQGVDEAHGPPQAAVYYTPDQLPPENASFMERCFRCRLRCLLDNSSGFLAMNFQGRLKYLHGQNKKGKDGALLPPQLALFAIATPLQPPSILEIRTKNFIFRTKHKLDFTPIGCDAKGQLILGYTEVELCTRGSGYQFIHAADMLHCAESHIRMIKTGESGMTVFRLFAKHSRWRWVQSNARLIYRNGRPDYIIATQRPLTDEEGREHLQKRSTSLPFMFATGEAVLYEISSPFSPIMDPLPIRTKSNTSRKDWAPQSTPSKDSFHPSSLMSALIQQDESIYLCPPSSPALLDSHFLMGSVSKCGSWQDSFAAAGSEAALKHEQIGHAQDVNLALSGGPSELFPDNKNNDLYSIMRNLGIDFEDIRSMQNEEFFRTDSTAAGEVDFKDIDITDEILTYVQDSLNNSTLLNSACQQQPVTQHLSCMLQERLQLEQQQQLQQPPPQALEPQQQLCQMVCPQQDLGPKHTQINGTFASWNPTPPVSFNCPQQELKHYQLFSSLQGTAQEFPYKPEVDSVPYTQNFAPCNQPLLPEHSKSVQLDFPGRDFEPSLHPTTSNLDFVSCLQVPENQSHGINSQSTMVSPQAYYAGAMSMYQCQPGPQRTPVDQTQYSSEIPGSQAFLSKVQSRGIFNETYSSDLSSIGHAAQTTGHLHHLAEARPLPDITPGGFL
Put plainly: In vitro assay 3: antagonism in mouse cell line (AHR transactivation, firefly luciferase reporter, kynurenic acid prestimulated). In kind it is cell-based. The method, boiled down: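 Luminescence from an AHR-dependent DRE-luciferase reporter, stably integrated in mouse cells, quantifies blockade of kynurenic acid-driven activation. Unstimulated cells mark maximal inhibition; normalization uses both control types, and multiply tested compounds carry mean or median values.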

The mark [3] stands for this setting: mouse Hepa 1c1c7 cells, 200 μM kynurenic acid, 20 hours, read-out: AHR Antagonism Mouse IC50.

By IC50 is commonly meant the concentration at which inhibition is half-maximal.

Where two headings read alike, the source gives them in different places. Where only a bound is given, the exact number is not on record here.

Take `O=C1NCCNC[C@H]1Nc1nc2c(Br)cccc2c2nc(-c3ccccc3OC(F)(F)F)nn12` [Example 266, (6R)-6-({7-bromo-2-[2-(trifluoromethoxy)phenyl][1,2,4]triazolo[1,5-c]quinazolin-5-yl}amino)-1,4-diazepan-5-one]: the concentration for half-maximal inhibition (IC50) worked out at 3.29e-09 M at AHR [1] and 2.17 nM on AHR [2] (setting [3]).

For the molecule `O=C1NCCNC[C@H]1Nc1nc2c(Br)cccc2c2nc(-c3cccc(F)c3)nn12` [Example 268, (6R)-6-{[7-bromo-2-(3-fluorophenyl)[1,2,4]triazolo[1,5-c]quinazolin-5-yl]amino}-1,4-diazepan-5-one], the concentration for half-maximal inhibition (IC50) at AHR [1] was 6.36e-09 M; at AHR [2] (setting [3]) it was 3.07 nM.

For the molecule `COc1ccc(-c2nc3c4cccc(Br)c4nc(N[C@@H]4CNCCNC4=O)n3n2)cc1` [Example 270, (6R)-6-{[7-bromo-2-(4-methoxyphenyl)[1,2,4]triazolo[1,5-c]quinazolin-5-yl]amino}-1,4-diazepan-5-one], the figures for the IC50 at AHR [1] and on AHR [2] (setting [3]) were 7.93e-10 M and 0.946 nM, respectively.

Take `Cc1cccc2c1nc(N[C@@H]1CNCCNC1=O)n1nc(-c3cnn(C)c3)nc21` [Example 271, (6R)-6-{[7-methyl-2-(1-methyl-1H-pyrazol-4-yl)[1,2,4]triazolo[1,5-c]quinazolin-5-yl]amino}-1,4-diazepan-5-one]: the values for the 50% inhibitory concentration (IC50) against AHR [1] and on AHR [2] (setting [3]) were 7.02e-07 M and 13900 nM, respectively.

For `COc1ccc(-c2nc3c4ccc(C(F)(F)F)cc4nc(N[C@@H]4CNCCNC4=O)n3n2)cc1` [Example 273, (6R)-6-{[2-(4-methoxyphenyl)-8-(trifluoromethyl)[1,2,4]triazolo[1,5-c]quinazolin-5-yl]amino}-1,4-diazepan-5-one], the figures for the concentration for half-maximal inhibition (IC50) on AHR [1] and on AHR [2] (setting [3]) were greater than 2e-05 M and 4590 nM, respectively.

Take `COc1ccc(-c2nc3c4ccc(C)cc4nc(N[C@@H]4CNCCNC4=O)n3n2)cc1` [Example 274, (6R)-6-{[2-(4-methoxyphenyl)-8-methyl[1,2,4]triazolo[1,5-c]quinazolin-5-yl]amino}-1,4-diazepan-5-one]: the IC50 came out at 1.09e-06 M against AHR [1] and 2150 nM at AHR [2] (setting [3]).

`COc1ccc(-c2nc3c4ccc(F)cc4nc(N[C@@H]4CNCCNC4=O)n3n2)cc1` [Example 276, (6R)-6-{[8-fluoro-2-(4-methoxyphenyl)[1,2,4]triazolo[1,5-c]quinazolin-5-yl]amino}-1,4-diazepan-5-one]: the concentration for half-maximal inhibition (IC50) stood at 1.45e-08 M at AHR [1] and 16.4 nM on AHR [2] (setting [3]).

`COc1ccc(-c2nc3c4cc(F)ccc4nc(N[C@@H]4CNCCNC4=O)n3n2)cc1` [Example 277, (6R)-6-{[9-fluoro-2-(4-methoxyphenyl)[1,2,4]triazolo[1,5-c]quinazolin-5-yl]amino}-1,4-diazepan-5-one]: the values for the IC50 against AHR [1] and on AHR [2] (setting [3]) were greater than 2e-05 M and 15.1 nM, respectively.

For the molecule `COc1ccc(-c2nc3c4cc(Cl)ccc4nc(N[C@@H]4CNCCNC4=O)n3n2)cc1` [Example 278, (6R)-6-{[9-chloro-2-(4-methoxyphenyl)[1,2,4]triazolo[1,5-c]quinazolin-5-yl]amino}-1,4-diazepan-5-one], the values for the half-maximal inhibitory concentration (IC50) on AHR [1] and at AHR [2] (setting [3]) were 3.72e-07 M and 51 nM, respectively.

Turning to `COc1ccc(-c2nc3c4cc(OC)ccc4nc(N[C@@H]4CNCCNC4=O)n3n2)cc1` [Example 279, (6R)-6-{[9-methoxy-2-(4-methoxyphenyl)[1,2,4]triazolo[1,5-c]quinazolin-5-yl]amino}-1,4-diazepan-5-one], the figures for the IC50 on AHR [1] and at AHR [2] (setting [3]) were 3.08e-07 M and 180 nM, respectively.

For `O=C1NCCNCC1Nc1nc2cccc(Cl)c2c2nc(-c3cccc(F)c3)nn12` (stereo not shown) [Example 284, 6-{[10-chloro-2-(3-fluorophenyl)[1,2,4]triazolo[1,5-c]quinazolin-5-yl]amino}-1,4-diazepan-5-one], the concentration for half-maximal inhibition (IC50) is greater than 2e-05 M on AHR [1] and 277 nM on AHR [2] (setting [3]).

Take `COc1ccc(-c2nc3c4c(C(F)(F)F)cccc4nc(N[C@@H]4CNCCNC4=O)n3n2)cc1` [Example 285, (6R)-6-{[2-(4-methoxyphenyl)-10-(trifluoromethyl)[1,2,4]triazolo[1,5-c]quinazolin-5-yl]amino}-1,4-diazepan-5-one]: the results for the IC50 on AHR [1] and at AHR [2] (setting [3]) were 1.36e-06 M and 625 nM, respectively.

As for `Cn1cc(-c2nc3c4c(C(F)(F)F)cccc4nc(N[C@@H]4CNCCNC4=O)n3n2)cn1` [Example 286, (6R)-6-{[2-(1-methyl-1H-pyrazol-4-yl)-10-(trifluoromethyl)[1,2,4]triazolo[1,5-c]quinazolin-5-yl]amino}-1,4-diazepan-5-one], the concentration for half-maximal inhibition (IC50) was determined as 2.78e-06 M against AHR [1] and 3350 nM at AHR [2] (setting [3]).

For `O=C1NCCNC[C@H]1Nc1nc2cccc(C(F)(F)F)c2c2nc(-c3ccc(F)cc3)nn12` [Example 287, (6R)-6-{[2-(4-fluorophenyl)-10-(trifluoromethyl)[1,2,4]triazolo[1,5-c]quinazolin-5-yl]amino}-1,4-diazepan-5-one], the values for the 50% inhibitory concentration (IC50) at AHR [1] and on AHR [2] (setting [3]) were 6.55e-06 M and 756 nM, respectively.

Turning to `O=C1NCCNC[C@H]1Nc1nc2cccc(C(F)(F)F)c2c2nc(-c3cccc(F)c3)nn12` [Example 288, (6R)-6-{[2-(3-fluorophenyl)-10-(trifluoromethyl)[1,2,4]triazolo[1,5-c]quinazolin-5-yl]amino}-1,4-diazepan-5-one], the half-maximal inhibitory concentration (IC50) is greater than 2e-05 M against AHR [1] and 887 nM on AHR [2] (read-out: AHR Antagonism Mouse IC50, mouse Hepa 1c1c7 cells, 200 μM kynurenic acid, 20 hours).

As to `COc1cccc(-c2nc3c4c(C)cccc4nc(N[C@@H]4CNCCNC4=O)n3n2)c1` [Example 289, (6R)-6-{[2-(3-methoxyphenyl)-10-methyl[1,2,4]triazolo[1,5-c]quinazolin-5-yl]amino}-1,4-diazepan-5-one], the half-maximal inhibitory concentration (IC50) at AHR [1] turned out to be 1.12e-06 M; at AHR [2] (setting [3]) it was 269 nM.

As to `COc1ccc(-c2nc3c4c(OC)cccc4nc(N[C@@H]4CNCCNC4=O)n3n2)cc1` [Example 291, (6R)-6-{[10-methoxy-2-(4-methoxyphenyl)[1,2,4]triazolo[1,5-c]quinazolin-5-yl]amino}-1,4-diazepan-5-one], the IC50 against AHR [1] amounted to 2.65e-06 M; on AHR [2] (setting [3]) it was 2680 nM.

In the case of `O=C1NCCNCC1Nc1nc2cccc(C3CC3)c2c2nc(-c3cccc(F)c3)nn12` (stereo not shown) [Example 295, 6-{[10-cyclopropyl-2-(3-fluorophenyl)[1,2,4]triazolo[1,5-c]quinazolin-5-yl]amino}-1,4-diazepan-5-one], the IC50 is greater than 2e-05 M at AHR [1] and 2910 nM at AHR [2] (setting [3]).

In the case of `COCc1noc(-c2nc3c4ccccc4nc(N[C@@H]4CCCCNC4=O)n3n2)n1` [Example 303, (3R)-3-({2-[3-(Methoxymethyl)-1,2,4-oxadiazol-5-yl][1,2,4]triazolo[1,5-c]quinazolin-5-yl}amino)azepan-2-one], the values for the IC50 at AHR [1] and at AHR [2] (setting [3]) were 4.52e-07 M and 293 nM, respectively.

As for `CN(C)Cc1noc(-c2nc3c4ccccc4nc(N[C@@H]4CCCCNC4=O)n3n2)n1` [Example 304, (3R)-3-[(2-{3-[(Dimethylamino)methyl]-1,2,4-oxadiazol-5-yl}[1,2,4]triazolo[1,5-c]quinazolin-5-yl)amino]azepan-2-one], the half-maximal inhibitory concentration (IC50) turned out to be 2.86e-06 M against AHR [1] and 1830 nM at AHR [2] (setting [3]).

The record behind these values is US20230113037A1 (Bayer Aktiengesellschaft, priority 2019, published 2023).
